Assay results as given in US12594276B2, “Inhibitors of human immunodeficiency virus replication” (ViiV Healthcare UK (No.5) Limited, priority 2024, dated 2026).

System: recombinant NL4-3 virus (nef section replaced with Renilla luciferase gene) in MT-2 cells
Assay: HIV cell culture assay (antiviral activity, luciferase readout)
Assay type: cell-based
Settings: Renilla, NL43, MT-2 cells infected for 4-5 days with recombinant NL4-3 Renilla luciferase virus
Procedure: HIV cell culture assay—MT-2 cells, 293T cells and the proviral DNA clone of NL4-3 virus were obtained from the NIH AIDS Research and Reference Reagent Program. MT-2 cells were propagated in RPMI 1640 media supplemented with 10% heat inactivated fetal bovine serum (FBS), […]. The 293T cells were propagated in DMEM media supplemented with 10% heat inactivated FBS, […]. A recombinant NL4-3 proviral clone, in which a section of the nef gene was replaced with the Renilla luciferase gene, was used to make the reference virus used in these studies. The recombinant virus was prepared through transfection of the recombinant NL4-3 proviral clone into 293T cells using Transit-293 Transfection Reagent from Mirus Bio LLC (Madison, WI). Supernatant was harvested after 2-3 days and the amount of virus present was titered in MT-2 cells using luciferase enzyme activity as a marker by measuring luciferase enzyme activity. Luciferase was quantitated using the EnduRen Live Cell Substrate from Promega (Madison, WI). Antiviral activities of compounds toward the recombinant virus were quantified by measuring luciferase activity in MT-2 cells infected for 4-5 days with the recombinant virus in the presence of serial dilutions of the compound.
The 50% effective concentration (EC50) was calculated by using the exponential form of the median effect equation where (Fa)=1/[1+(ED50/drug conc.)m](Johnson V A, Byington R T. Infectivity Assay. In Techniques in HIV Research. ed. Aldovini A, Walker B D. 71-76. New York: Stockton Press. 1990). Curve fitting and analysis were performed with ActivityBase XE Runner software version 9.1.0.4 using model 203 (ID Business Solutions, LTD, Guildford, UK).

`Cc1cc(C2CCC(F)(F)CC2)nc2nc([C@H](Cc3cc(F)cc(F)c3)NC(=O)Cn3nc(C4CC4)c4c3C[C@H]3C[C@@H]43)n(-c3ccc(Cl)c4c(NS(C)(=O)=O)nn(CCN5CC(C)(C)OC(C)(C)C5)c34)c(=O)c12` (atropisomer, axis not shown; (P)) [Example 606, N-[(1S)-1-[(3P)-3-{4-chloro-3-methanesulfonamido-1-[2-(2,2,6,6-tetramethylmorpholin-4-yl)ethyl]-1H-indazol-7-yl}-7-(4,4-difluorocyclohexyl)-5-methyl-4-oxo-3H,4H-pyrido[2,3-d]pyrimidin-2-yl]-2-(3,5-difluorophenyl)ethyl]-2-[(2R,4R)-9-cyclopropyl-7,8-diazatricyclo[4.3.0.0^2,^4]nona-1(6),8-dien-7-yl]acetamide] showed an EC50 of 26 pM.

Work on `Cc1cc(C2CCC(F)(F)CC2)nc2nc([C@H](Cc3cc(F)cc(F)c3)NC(=O)Cn3nc(C(F)(F)F)c4c3C(F)(F)[C@@H]3C[C@H]43)n(-c3ccc(Cl)c4c(NS(C)(=O)=O)nn(CCN5CC(C)(C)OC(C)(C)C5)c34)c(=O)c12` (atropisomer, axis not shown; (P)) [Example 609, N-[(1S)-1-[(3P)-3-{4-chloro-3-methanesulfonamido-1-[2-(2,2,6,6-tetramethylmorpholin-4-yl)ethyl]-1H-indazol-7-yl}-7-(4,4-difluorocyclohexyl)-5-methyl-4-oxo-3H,4H-pyrido[2,3-d]pyrimidin-2-yl]-2-(3,5-difluorophenyl)ethyl]-2-[(2S,4R)-5,5-difluoro-9-(trifluoromethyl)-7,8-diazatricyclo[4.3.0.0^2,^4]nona-1(6),8-dien-7-yl]acetamide] yielded an EC50 of 33 pM.

With `Cc1cc(C2CCC(F)(F)CC2)nc2nc([C@H](Cc3cc(F)cc(F)c3)NC(=O)Cn3nc(C4CC4)c4c3C(F)(F)[C@@H]3C[C@H]43)n(-c3ccc(Cl)c4c(NS(C)(=O)=O)nn(CCN5CC(C)(C)OC(C)(C)C5)c34)c(=O)c12` (atropisomer, axis not shown; (P)) [Example 610, N-[(1S)-1-[(3P)-3-{4-chloro-3-methanesulfonamido-1-[2-(2,2,6,6-tetramethylmorpholin-4-yl)ethyl]-1H-indazol-7-yl}-7-(4,4-difluorocyclohexyl)-5-methyl-4-oxo-3H,4H-pyrido[2,3-d]pyrimidin-2-yl]-2-(3,5-difluorophenyl)ethyl]-2-[(2S,4R)-9-cyclopropyl-5,5-difluoro-7,8-diazatricyclo[4.3.0.0^2,^4]nona-1(6),8-dien-7-yl]acetamide] the EC50 was 17 pM.

Compound `Cc1cc(C2CCC(F)(F)CC2)nc2nc([C@H](Cc3cc(F)cc(F)c3)NC(=O)Cn3nc(C(F)F)c4c3C[C@@H]3C[C@H]43)n(-c3ccc(Cl)c4c(NS(C)(=O)=O)nn(CCN5CC(C)(C)OC(C)(C)C5)c34)c(=O)c12` (atropisomer, axis not shown; (P)) [Example 611, N-[(1S)-1-[(3P)-3-{4-chloro-3-methanesulfonamido-1-[2-(2,2,6,6-tetramethylmorpholin-4-yl)ethyl]-1H-indazol-7-yl}-7-(4,4-difluorocyclohexyl)-5-methyl-4-oxo-3H,4H-pyrido[2,3-d]pyrimidin-2-yl]-2-(3,5-difluorophenyl)ethyl]-2-[(2S,4S)-9-(difluoromethyl)-7,8-diazatricyclo[4.3.0.0^2,^4]nona-1(6),8-dien-7-yl]acetamide] has an EC50 of 25 pM.

`Cc1cc(C2CCC(F)(F)CC2)nc2nc([C@H](Cc3cc(F)cc(F)c3)NC(=O)Cn3nc(C(F)(F)F)c4c3C[C@@H]3C[C@H]43)n(-c3ccc(Cl)c4c(NS(C)(=O)=O)nn(CCN5CC(C)(C)OC(C)(C)C5)c34)c(=O)c12` (atropisomer, axis not shown; (P)) [Example 612, N-[(1S)-1-[(3P)-3-{4-chloro-3-methanesulfonamido-1-[2-(2,2,6,6-tetramethylmorpholin-4-yl)ethyl]-1H-indazol-7-yl}-7-(4,4-difluorocyclohexyl)-5-methyl-4-oxo-3H,4H-pyrido[2,3-d]pyrimidin-2-yl]-2-(3,5-difluorophenyl)ethyl]-2-[(2S,4S)-9-(trifluoromethyl)-7,8-diazatricyclo[4.3.0.0^2,^4]nona-1(6),8-dien-7-yl]acetamide] showed an EC50 of 28 pM.

Compound `Cc1cc(C2CCC(F)(F)CC2)nc2nc([C@H](Cc3cc(F)cc(F)c3)NC(=O)Cn3nc([C@H]4CC4(F)F)c4c3C[C@H]3C[C@@H]43)n(-c3ccc(Cl)c4c(NS(C)(=O)=O)nn(CCN5CC(C)(C)OC(C)(C)C5)c34)c(=O)c12` (atropisomer, axis not shown; (P)) [Example 613, N-[(1S)-1-[(3P)-3-{4-chloro-3-methanesulfonamido-1-[2-(2,2,6,6-tetramethylmorpholin-4-yl)ethyl]-1H-indazol-7-yl}-7-(4,4-difluorocyclohexyl)-5-methyl-4-oxo-3H,4H-pyrido[2,3-d]pyrimidin-2-yl]-2-(3,5-difluorophenyl)ethyl]-2-[(2R,4R)-9-[(1R)-2,2-difluorocyclopropyl]-7,8-diazatricyclo[4.3.0.0^2,^4]nona-1(6),8-dien-7-yl]acetamide] has an EC50 of 15 pM.

`COCCCn1nc(NS(C)(=O)=O)c2c(Cl)ccc(-n3c([C@H](Cc4cc(F)cc(F)c4)NC(=O)Cn4nc(C(F)F)c5c4C(F)(F)[C@@H]4C[C@H]54)nc4nc(C5(CCN6C[C@H](F)C[C@H](F)C6)CCC(F)(F)CC5)cc(C)c4c3=O)c21` (atropisomer, axis not shown; (P)) [Example 615] showed an EC50 of 27 pM.

Compound `CS(=O)(=O)Nc1nn(CCN2C[C@H](F)C[C@H](F)C2)c2c(-n3c([C@H](Cc4cc(F)cc(F)c4)NC(=O)Cn4nc(C(F)F)c5c4C(F)(F)[C@@H]4C[C@H]54)nc4nc(C5CCC(F)(F)CC5)cc(CN5CC(F)(F)C5)c4c3=O)ccc(Cl)c12` (atropisomer, axis not shown; (P)) [Example 620, N-[(1S)-1-[(3P)-3-(4-chloro-1-{2-[(3R,5S)-3,5-difluoropiperidin-1-yl]ethyl}-3-methanesulfonamido-1H-indazol-7-yl)-5-[(3,3-difluoroazetidin-1-yl)methyl]-7-(4,4-difluorocyclohexyl)-4-oxo-3H,4H-pyrido[2,3-d]pyrimidin-2-yl]-2-(3,5-difluorophenyl)ethyl]-2-[(2S,4R)-9-(difluoromethyl)-5,5-difluoro-7,8-diazatricyclo[4.3.0.0^2,]nona-1(6),8-dien-7-yl]acetamide] has an EC50 of 7 pM.

`CC1(C)CN(CCn2nc(NS(C)(=O)=O)c3c(Cl)ccc(-n4c([C@H](Cc5cc(F)cc(F)c5)NC(=O)Cn5nc(C(F)F)c6c5C(F)(F)[C@@H]5C[C@H]65)nc5nc(C6CCC(F)(F)CC6)cc(CN6CC(F)(F)C6)c5c4=O)c32)CC(C)(C)O1` (atropisomer, axis not shown; (P)) [Example 621, N-[(1S)-1-[(3P)-3-{4-chloro-3-methanesulfonamido-1-[2-(2,2,6,6-tetramethylmorpholin-4-yl)ethyl]-1H-indazol-7-yl}-5-[(3,3-difluoroazetidin-1-yl)methyl]-7-(4,4-difluorocyclohexyl)-4-oxo-3H,4H-pyrido[2,3-d]pyrimidin-2-yl]-2-(3,5-difluorophenyl)ethyl]-2-[(2S,4R)-9-(difluoromethyl)-5,5-difluoro-7,8-diazatricyclo[4.3.0.0^2,4]nona-1(6),8-dien-7-yl]acetamide] gave an EC50 of 5 pM.

Work on `Cc1cc(C2CCC(F)(F)CC2)nc2nc([C@H](Cc3cc(F)cc(F)c3)NC(=O)Cn3nc(C(F)F)c4c3C(F)(F)[C@@H]3C[C@H]43)n(-c3ccc(Cl)c4c(NS(C)(=O)=O)nn(C[C@@H](C)N5CC(C)(C)OC(C)(C)C5)c34)c(=O)c12` (atropisomer, axis not shown; (P)) [Example 705, N-[(1S)-1-[(3P)-3-{4-chloro-3-methanesulfonamido-1-[(2R)-2-(2,2,6,6-tetramethylmorpholin-4-yl)propyl]-1H-indazol-7-yl}-7-(4,4-difluorocyclohexyl)-5-methyl-4-oxo-3H,4H-pyrido[2,3-d]pyrimidin-2-yl]-2-(3,5-difluorophenyl)ethyl]-2-[(2S,4R)-9-(difluoromethyl)-5,5-difluoro-7,8-diazatricyclo[4.3.0.0^2,^4]nona-1(6),8-dien-7-yl]acetamide] yielded an EC50 of 21 pM.

Work on `Cc1cc(C2(F)CCC(F)(F)CC2)nc2nc([C@H](Cc3cc(F)cc(F)c3)NC(=O)Cn3nc(C(F)F)c4c3C(F)(F)[C@@H]3C[C@H]43)n(-c3ccc(Cl)c4c(NS(C)(=O)=O)nn(C[C@@H](C)N5CC(C)(C)OC(C)(C)C5)c34)c(=O)c12` (atropisomer, axis not shown; (P)) [Example 707, N-[(1S)-1-[(3P)-3-{4-chloro-3-methanesulfonamido-1-[(2R)-2-(2,2,6,6-tetramethylmorpholin-4-yl)propyl]-1H-indazol-7-yl}-5-methyl-4-oxo-7-(1,4,4-trifluorocyclohexyl)-3H,4H-pyrido[2,3-d]pyrimidin-2-yl]-2-(3,5-difluorophenyl)ethyl]-2-[(2S,4R)-9-(difluoromethyl)-5,5-difluoro-7,8-diazatricyclo[4.3.0.0^2,^4]nona-1(6),8-dien-7-yl]acetamide] yielded an EC50 of 38 pM.
